# In article PMC2904454 (Cancer Chemotherapy and Pharmacology, 2009):
# Where two headings read alike, the source gives them in different places.
# Key:
# [1] = tested on: patients with advanced solid tumors; assay type: in vivo, human; settings: for MTD of sunitinib in combination with docetaxel: with docetaxel q21d; for MTD of docetaxel in combination with sunitinib: IV q21d
# [2] = tested on: patients with advanced solid tumors; experiment: Safety: adverse events graded by NCI CTCAE v3.0, ECG/MUGA, patient disposition; assay type: in vivo, human; settings: with docetaxel
# [3] = Plasma pharmacokinetics of sunitinib, SU12662 and total drug; assay type: in vivo, human; settings: for Mean trough plasma concentration: day 14 of cycle 1, Schedule 2/1
# [4] = Plasma pharmacokinetics of docetaxel; assay type: in vivo, human; settings: for half-life / AUC(0-inf) / Cmax / Tmax: plasma, intravenous; for Tmax: median (range)
# breast cancer and NSCLC = settings: cited from earlier work
# NSCLC = settings: ESCAPE, with carboplatin and paclitaxel in NSCLC; cited from earlier work
# [5] = Schedule 2/1 MTD only, dose level 3b (n = 23)
# [6] = Schedule 2/1 dose levels 0–3b, all patients (N = 40)
# [7] = Schedule 4/2 dose levels 0–1 (N = 10)
# [8] = Schedule 2/1 dose level 3b (MTD), n = 10
# [9] = Schedule 2/1 dose level 3b (MTD), n = 10, docetaxel + sunitinib (day 1 of cycle 2)
# [10] = Schedule 2/1 dose level 3b (MTD), n = 10, sunitinib alone (day 3 of cycle 1)
# [11] = Schedule 4/2 dose level 0, n = 3
# [12] = Schedule 4/2 dose level 0, n = 3, docetaxel + sunitinib (day 22)
# [13] = Schedule 4/2 dose level 0, n = 3, sunitinib alone (day 18)
# [14] = Schedule 4/2 dose level 1, n = 5
# [15] = Schedule 4/2 dose level 1, n = 5, docetaxel + sunitinib (day 22)
# [16] = Schedule 4/2 dose level 1, n = 5, sunitinib alone (day 18)
# [17] = Schedule 2/1 dose level 3b, n = 8
structure (smiles),measurement,setting,value
"CCN(CC)CCNC(=O)c1c(C)[nH]c(/C=C2\C(=O)Nc3ccc(F)cc32)c1C [sunitinib, Sunitinib malate]",MTD of sunitinib in combination with docetaxel,"[1]; Schedule 2/1, oral",37.5 mg/day
same,MTD of sunitinib in combination with docetaxel,"[1]; Schedule 4/2, oral",25 mg/day
same,Dose reduction for sunitinib,[2]; [5],4 (17) n (%)
same,"Treatment interruption for sunitinib, adverse event",[2]; [5],9 (39) n (%)
same,Dose reduction for sunitinib,[2]; [6],5 (13) n (%)
same,"Treatment interruption for sunitinib, adverse event",[2]; [6],11 (28) n (%)
same,Dose reduction for sunitinib,[2]; [7],1 (10) n (%)
same,"Treatment interruption for sunitinib, adverse event",[2]; [7],3 (30) n (%)
same,Mean trough plasma concentration,[3],43.8 ng/mL
same,AUC(0-t),"[3]; human, in vivo",297 ng·h/mL
same,AUC(0-t),"[3]; human, in vivo, AUC0–24, mean (SD)",1170 ng·h/mL
same,AUC(0-t),"[3]; human, plasma, oral, 25 mg, AUC0–24, mean (SD), Schedule 4/2 dose level 0 (sunitinib 25 mg, docetaxel 60 mg/m^2), n = 3, sunitinib alone (day 18)",721 ng·h/mL
same,Tmax,"[3]; human, plasma, oral, 37.5 mg",8 h
same,AUC(0-t),"[3]; human, plasma, oral, AUC0–24, mean (SD), Schedule 4/2 dose level 0, n = 3, docetaxel + sunitinib (day 22)",548 ng·h/mL
same,AUC(0-t),"[3]; human, plasma, oral, AUC0–24, mean (SD), Schedule 4/2 dose level 1, n = 5, docetaxel + sunitinib (day 22)",1020 ng·h/mL
CCNCCNC(=O)c1c(C)[nH]c(/C=C2\C(=O)Nc3ccc(F)cc32)c1C [SU12662],AUC0–24 geometric mean ratio (combination/drug alone),[3]; [8],0.99
same,C max geometric mean ratio (combination/drug alone),[3]; [8],1.16
same,"AUC0–24, mean (SD)",[3]; [9],62.7 (32.4) ng*h/mL
same,"C max, mean (SD)",[3]; [9],4.1 (1.9) ng/mL
same,"T max, median (range)",[3]; [9],"7.0 (2.0, 24.0) h"
same,"C max, mean (SD)",[3]; [10],3.4 (1.3) ng/mL
same,"T max, median (range)",[3]; [10],"5.0 (4.0, 24.0) h"
same,"AUC0–24, mean (SD)","[3]; Schedule 2/1 dose level 3b (MTD: sunitinib 37.5 mg + docetaxel 75 mg/m^2 q21d), n = 10, sunitinib alone (day 3 of cycle 1)",58.0 (22.3) ng*h/mL
same,"AUC0–24, mean (SD)","[3]; Schedule 4/2 dose level 0 (sunitinib 25 mg, docetaxel 60 mg/m^2), n = 3, sunitinib alone (day 18)",294.0 (195.0) ng*h/mL
same,AUC0–24 geometric mean ratio (combination/drug alone),[3]; [11],1.10
same,C max geometric mean ratio (combination/drug alone),[3]; [11],1.14
same,"AUC0–24, mean (SD)",[3]; [12],299.9 (132.7) ng*h/mL
same,"C max, mean (SD)",[3]; [12],14.4 (7.2) ng/mL
same,"T max, median (range)",[3]; [12],"4.0 (2.0, 4.0) h"
same,"C max, mean (SD)",[3]; [13],13.3 (8.3) ng/mL
same,"T max, median (range)",[3]; [13],"4.0 (4.0, 12.0) h"
same,"AUC0–24, mean (SD)","[3]; Schedule 4/2 dose level 1 (sunitinib 37.5 mg, docetaxel 60 mg/m^2), n = 5, sunitinib alone (day 18)",341.9 (110.9) ng*h/mL
same,AUC0–24 geometric mean ratio (combination/drug alone),[3]; [14],1.06
same,C max geometric mean ratio (combination/drug alone),[3]; [14],1.05
same,"AUC0–24, mean (SD)",[3]; [15],366.8 (137.5) ng*h/mL
same,"C max, mean (SD)",[3]; [15],17.7 (7.2) ng/mL
same,"T max, median (range)",[3]; [15],"4.0 (1.0, 12.0) h"
same,"C max, mean (SD)",[3]; [16],16.3 (4.6) ng/mL
same,"T max, median (range)",[3]; [16],"6.0 (2.0, 12.0) h"
same,Mean trough plasma concentration,[3],16.4 ng/mL
"CC(=O)O[C@@]12CO[C@@H]1C[C@H](O)[C@@]1(C)C(=O)[C@H](O)C3=C(C)[C@@H](OC(=O)[C@H](O)[C@@H](NC(=O)OC(C)(C)C)c4ccccc4)C[C@@](O)([C@@H](OC(=O)c4ccccc4)[C@H]21)C3(C)C [docetaxel, Docetaxel]",MTD of docetaxel in combination with sunitinib,[1]; with sunitinib on Schedule 2/1,75 mg/m^2
same,MTD of docetaxel in combination with sunitinib,[1]; with sunitinib on Schedule 4/2,60 mg/m^2
same,AUCinf geometric mean ratio (combination/drug alone),[4]; [17],1.12
same,AUClast geometric mean ratio (combination/drug alone),[4]; [17],1.16
same,C max geometric mean ratio (combination/drug alone),[4]; [17],1.24
same,AUCinf geometric mean ratio (combination/drug alone),[4]; [14],1.43
same,AUClast geometric mean ratio (combination/drug alone),[4]; [14],1.47
same,C max geometric mean ratio (combination/drug alone),[4]; [14],1.46
same,"AUClast, mean (SD)","[4]; human, in vivo","2,712.5 (731.9) ng*h/mL"
same,AUC(0-t),"[4]; human, in vivo, AUClast, mean (SD)",2290 ng·h/mL
same,half-life,"[4]; human, 60 mg/m^2",19.6 h
same,AUC(0-inf),"[4]; human, 60 mg/m^2, AUCinf, mean (SD), Schedule 4/2 dose level 1, n = 5, drug alone (day 1 of cycle 1)",2550 ng·h/mL
same,half-life,"[4]; human, 75 mg/m^2",15.7 h
same,AUC(0-inf),"[4]; human, 75 mg/m^2, AUCinf, mean (SD), Schedule 2/1 dose level 3b, n = 8, drug alone (day 1 of cycle 1)",2960 ng·h/mL
same,Cmax,"[4]; human, 75 mg/m^2, C max, mean (SD), Schedule 2/1 dose level 3b, n = 8, drug alone (day 1 of cycle 1)",2580 ng/mL
same,Tmax,"[4]; human, 75 mg/m^2, T max, Schedule 2/1 dose level 3b, n = 8, drug alone (day 1 of cycle 1)",0.6 h
same,AUC(0-inf),"[4]; human, AUCinf, mean (SD), Schedule 4/2 dose level 1, n = 5, docetaxel + sunitinib (day 22 of cycle 1)",3690 ng·h/mL
same,Cmax,"[4]; human, C max, mean (SD), Schedule 2/1 dose level 3b, n = 8, docetaxel + sunitinib (day 1 of cycle 2)",3180 ng/mL
same,Cmax,"[4]; human, C max, mean (SD), Schedule 4/2 dose level 1, n = 5, docetaxel + sunitinib (day 22 of cycle 1)",3100 ng/mL
same,Tmax,"[4]; human, T max, Schedule 2/1 dose level 3b, n = 8, docetaxel + sunitinib (day 1 of cycle 2)",0.8 h
same,"Grade 3/4 neutropenia, patients","breast cancer and NSCLC; docetaxel monotherapy, phase III trials of breast cancer and NSCLC",54–84%
same,Use of granulocytic growth factor support,breast cancer and NSCLC; single-agent docetaxel,17.9%
CNC(=O)c1cc(Oc2ccc(NC(=O)Nc3ccc(Cl)c(C(F)(F)F)c3)cc2)ccn1 [sorafenib],Febrile neutropenia rate,NSCLC,5%
same,Grade 3/4 thrombocytopenia rate,NSCLC,14%
